From EP0917465B1, “ANTIMALARIAL AND ANTI-BABESIOSIS AGENTS AND PHARMACEUTICAL COMPOSITIONS CONTAINING THE SAME AGENTS” (priority 1996, dated 1998)

What was measured:
Plasmodium falciparum = assay: In vitro antimalarial activity, (3H) hypoxanthine incorporation in infected human erythrocytes (Desjardins test); assay type: cell-based; details: Plasmodium falciparum, Erythrocyte, concentration inhibiting in vitro parasite growth by 50 %; human erythrocytes infected with Plasmodium falciparum; 24 h contact, test lasts 60 to 70 h; read-out: IC50 exprimée en micromoles
Description: L'activité antipaludéenne des dérivés selon les exemples précédents est testée sur l'humain infesté par Plasmodium falciparum. Le produit à tester est mis en contact avec les érythrocytes humains infectés pendant 24 heures. Un précurseur radioactif d'acides nucléiques l'Hypoxanthine (^3H) est ensuite ajouté. Le précurseur ne s'incorpore que dans les cellules infectées par un parasite en croissance, c'est à dire dans les cellules que la drogue n'aura pas affectées.
L'aptitude ou non à incorporer le précurseur reflète donc la viabilité des cellules impaludées. La durée des tests est de 60 à 70 heures ( test de DESJARDINS R.E. , CANFIELD C.J., HATNES J.D. et CHULAY J.D., Antimicrob. Agents Chemother. 1979, 16, p 710-718 ). Les résultats sont consignés dans le tableau I ci-après, sous forme de IC50 (ou DE50), soit la concentration de produit dans le milieu expérimental capable d'inhiber in vitro la croissance du parasite d'une valeur de 50%.

[1] = Therapeutic index in infected mice: 4-day Peters test activity versus semi-chronic toxicity (DL 50); assay type: in vivo, souris Swiss mâles; details: mouse, in vivo, ratio of activity to toxicity under identical conditions, intraperitoneal or subcutaneous, twice a day for 4 days, read-out: Index thérapeutique
Description: Afin d'évaluer l'index thérapeutique des divers produits, on a mesuré l'activité de ceux-ci dans un test in vivo et comparé à la toxicité aiguë chez l'animal . Cette activité est mesurée suivant le test décrit par PETERS W. ( Chemotherapy and Drug résistance in Malaria, 1970). Un composé est administré pendant quatre jours consécutifs à des souris préalablement impaludées par Plasmodium vinckei, petteri, ou chabaudi, ledit composé étant dissous dans une solution de NaCI à 0.9 %. Les préparations sont ainsi administrées par voie intrapéritonéale ou par voie sous-cutanée à des souris Swiss mâles infectées par voie IV, avec Plasmodium petterei ou Plasmodium chabaudi (10^6 cellules infectées ). Le composé est administré deux fois par jour pendant 4 jours consécutifs, la première injection étant pratiquée 2 heures après l'infestation et la deuxième, 10 heures après. La parasitémie est déterminée par un frottis, le jour suivant la fin du traitement. La toxicité est mesurée in vivo selon la même méthode, les animaux ayant reçu dans les conditions d'administration ci-dessus, 2 injections par jour pendant 4 jours ( toxicité semi chronique). Les résultats sont exprimés sous forme de DL 50, soit la dose ayant entraîné la mort de 50% des animaux.
Les résultats des essais sont résumés dans le tableau I ci-après sous forme d'index thérapeutique, soit le rapport de l'activité à la toxicité mésurées dans des conditions identiques comme décrit ci-dessus.

[2] = system: Babesia Bovis, Babesia Canis; assay: In vitro anti-Babesia activity, (3H) hypoxanthine incorporation; assay type: cell-based; details: class of ID 50 for (3H) hypoxanthine incorporation; read-out: Activité/ Babesia à 10 millimole
Description: Le procédé de criblage d'activité anti-malaria, basé sur l'incorporation de l'(^3H) Hypoxanthine par le parasite, est utilisé pour tester l'activité anti-métabolique de tels composés sur Babesia Bovis, Babesia Canis. Une relation étroite est trouvée entre le taux d'incorporation de (^3H) Hypoxanthine dans une mesure standard et le pourcentage de cellules parasitées, déterminé par examen microscopique. Cette activité métabolique est quantifiée et évaluée dans le tableau ci-dessous par la cotation +++ pour les molécules affichant dans le test une inhibition de 50 % de l'incorporation de (^3H) Hypoxanthine (ID 50), ces molécules étant à une concentration inférieure ou égale à 0,01 Micromolaire. La cotation est de ++ pour la même activité à une concentration de 0,01 à 0.1 micromolaire et enfin de + pour une concentration inférieure ou égale à 1 Micromolaire.

## C[N+]1(CCCCCCCCCCCCCCCC[N+]2(C)CCCC2CO)CCCC1CO (stereo not drawn) [EXEMPLE 18, 1,1'-(1, 16-hexadecanediyl) bis (2-hydroxymethyl-1-methylpyrrolidinium) dibromure]
Plasmodium falciparum
  IC50: 1 nM
[1]
  selectivity ratio: 22
[2]
  IC50: < 10 nM

## C[N+]1(CCCCCCCCCCCCCCCC[N+]2(C)CCCC(CO)C2)CCCC(CO)C1 (stereo not drawn) [EXEMPLE 20, 1,1'-(1,16-hexadecanediyl) bis (1-methyl-3hydroxy methyl piperidinium) dibromure]
Plasmodium falciparum
  IC50: 0.3 nM
[1]
  selectivity ratio: 17
[2]
  IC50: < 10 nM
